Experimental data taken from article PMC11022890 (Drug Metabolism and Disposition, 2021).

What was measured:
UGT1A6 = target: T1, UGT1A6 (Homo sapiens, UniProt P19224); experiment: Inhibition of serotonin glucuronidation in rUGT1A6 microsomes; type: in vitro ADME; settings: for inhibition vs control without cannabinoid: serotonin
T1 sequence (P19224 27-532): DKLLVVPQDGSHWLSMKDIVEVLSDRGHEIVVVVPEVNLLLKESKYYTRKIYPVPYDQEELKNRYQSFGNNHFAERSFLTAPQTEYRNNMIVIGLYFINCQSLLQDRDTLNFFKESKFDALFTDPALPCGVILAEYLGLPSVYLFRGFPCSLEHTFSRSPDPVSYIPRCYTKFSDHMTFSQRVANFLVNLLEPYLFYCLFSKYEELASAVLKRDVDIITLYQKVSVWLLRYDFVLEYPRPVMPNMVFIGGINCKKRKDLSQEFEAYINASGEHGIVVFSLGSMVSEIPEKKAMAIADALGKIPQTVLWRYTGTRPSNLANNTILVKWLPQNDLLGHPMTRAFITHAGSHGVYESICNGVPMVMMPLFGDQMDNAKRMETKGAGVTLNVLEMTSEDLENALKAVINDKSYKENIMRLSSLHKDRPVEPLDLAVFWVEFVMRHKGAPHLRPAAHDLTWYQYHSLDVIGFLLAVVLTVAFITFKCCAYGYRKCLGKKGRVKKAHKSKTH

UGT2B4 = target: T2, UGT2B4 (Homo sapiens, UniProt P06133); experiment: Inhibition of codeine glucuronidation in rUGT2B4 microsomes; type: in vitro ADME
T2 sequence (P06133 24-528): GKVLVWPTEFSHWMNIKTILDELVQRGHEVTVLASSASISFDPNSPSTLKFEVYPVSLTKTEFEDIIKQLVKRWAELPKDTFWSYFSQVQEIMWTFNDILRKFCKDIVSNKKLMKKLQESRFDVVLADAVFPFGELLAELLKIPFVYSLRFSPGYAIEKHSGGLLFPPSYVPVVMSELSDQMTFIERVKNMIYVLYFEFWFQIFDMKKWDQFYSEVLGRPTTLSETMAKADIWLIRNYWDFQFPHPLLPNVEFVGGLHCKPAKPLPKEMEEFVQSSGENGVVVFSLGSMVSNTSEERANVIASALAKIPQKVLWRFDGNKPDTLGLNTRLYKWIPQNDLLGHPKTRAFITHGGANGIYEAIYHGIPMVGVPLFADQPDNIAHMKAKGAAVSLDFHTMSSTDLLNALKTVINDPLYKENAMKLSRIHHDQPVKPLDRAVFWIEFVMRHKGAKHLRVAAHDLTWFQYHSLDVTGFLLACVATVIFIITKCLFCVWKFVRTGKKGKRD

UGT1A9 = target: T3, UGT1A9 (Homo sapiens, UniProt O60656); experiment: Inhibition of furosemide glucuronidation in rUGT1A9 microsomes; type: in vitro ADME
T3 sequence (O60656 26-530): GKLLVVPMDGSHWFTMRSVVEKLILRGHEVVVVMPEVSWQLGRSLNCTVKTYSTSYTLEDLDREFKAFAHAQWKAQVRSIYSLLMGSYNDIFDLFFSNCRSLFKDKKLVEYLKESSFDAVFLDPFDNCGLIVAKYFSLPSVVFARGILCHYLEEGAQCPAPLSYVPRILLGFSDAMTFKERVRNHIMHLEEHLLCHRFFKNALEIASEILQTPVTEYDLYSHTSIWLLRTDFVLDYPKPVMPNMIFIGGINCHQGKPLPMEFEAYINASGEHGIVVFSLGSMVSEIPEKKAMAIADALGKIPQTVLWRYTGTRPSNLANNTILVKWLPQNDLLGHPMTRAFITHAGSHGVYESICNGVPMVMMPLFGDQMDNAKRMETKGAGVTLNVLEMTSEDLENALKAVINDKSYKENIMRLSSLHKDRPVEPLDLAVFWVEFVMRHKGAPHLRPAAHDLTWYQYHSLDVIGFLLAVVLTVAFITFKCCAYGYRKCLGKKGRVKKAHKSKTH

UGT1A3 = target: T4, UGT1A3 (Homo sapiens, UniProt P35503); type: in vitro ADME; settings: rUGT1A3 microsomes; 10 or 100 µM
T4 sequence (P35503 29-534): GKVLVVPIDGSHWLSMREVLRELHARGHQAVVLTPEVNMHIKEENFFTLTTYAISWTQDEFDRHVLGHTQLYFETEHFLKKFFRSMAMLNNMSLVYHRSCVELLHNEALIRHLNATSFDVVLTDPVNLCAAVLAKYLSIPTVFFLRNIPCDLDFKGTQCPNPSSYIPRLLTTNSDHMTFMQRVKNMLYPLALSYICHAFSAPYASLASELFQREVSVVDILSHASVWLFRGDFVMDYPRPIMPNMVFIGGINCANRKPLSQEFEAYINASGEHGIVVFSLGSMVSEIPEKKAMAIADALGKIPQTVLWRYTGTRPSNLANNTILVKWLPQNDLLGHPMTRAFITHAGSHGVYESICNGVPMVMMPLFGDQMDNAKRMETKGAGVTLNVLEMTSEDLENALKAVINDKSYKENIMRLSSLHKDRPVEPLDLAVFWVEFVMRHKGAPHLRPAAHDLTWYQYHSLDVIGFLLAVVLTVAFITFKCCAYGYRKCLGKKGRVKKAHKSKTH

UGT2B17 = target: T5, UGT2B17 (Homo sapiens, UniProt O75795); type: in vitro ADME; settings: 100 µM; rUGT2B17 microsomes; dihydroexemestane; screening
T5 sequence (O75795 24-530): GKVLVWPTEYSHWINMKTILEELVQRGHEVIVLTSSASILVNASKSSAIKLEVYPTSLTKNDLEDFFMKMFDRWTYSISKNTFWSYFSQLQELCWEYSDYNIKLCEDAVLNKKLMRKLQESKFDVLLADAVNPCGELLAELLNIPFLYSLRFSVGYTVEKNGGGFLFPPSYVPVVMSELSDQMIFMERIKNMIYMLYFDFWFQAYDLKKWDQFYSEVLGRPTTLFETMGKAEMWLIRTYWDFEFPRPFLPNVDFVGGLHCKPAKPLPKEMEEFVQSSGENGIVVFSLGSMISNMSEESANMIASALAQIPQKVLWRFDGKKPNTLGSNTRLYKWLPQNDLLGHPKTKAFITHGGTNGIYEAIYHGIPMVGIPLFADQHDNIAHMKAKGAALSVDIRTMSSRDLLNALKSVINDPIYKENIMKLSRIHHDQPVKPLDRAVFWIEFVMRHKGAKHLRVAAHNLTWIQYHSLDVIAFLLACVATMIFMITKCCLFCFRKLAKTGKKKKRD

[1] = target: T6, UGT1A9 in human kidney microsomes (Homo sapiens, UniProt O60656); experiment: Inhibition of furosemide glucuronidation; settings: HKM
T6 sequence (O60656 26-530): T3 sequence (O60656 26-530)

[2] = IC50, probe substrate furosemide
[3] = IC50,u (binding-corrected IC50), probe substrate furosemide

Question: What does the source list for `CCCCCc1cc(O)c2c(c1)OC(C)(C)c1ccc(C)cc1-2` [CBN, cannabinol]?
Answer: inhibition vs control without cannabinoid (UGT1A6; 100 µM, screening in duplicate): 43%; inhibition in screening (in words) (UGT2B4; 10 or 100 µM): significant inhibition was not observed; IC50 (UGT1A9; [2]): 9200 ± 2100 nM; IC50 (UGT1A9; [3]): 780 ± 180 nM; inhibition in screening (in words) (UGT1A3): no significant inhibition; inhibition vs control without cannabinoid (UGT2B17): 34%; IC50 [1, 2]: 15000 ± 770 nM; IC50 [1, 3]: 1900 ± 92 nM

Question: What does the source list for `C=C(C)[C@@H]1CCC(C)=C[C@H]1c1c(O)cc(CCCCC)cc1O` [CBD, cannabidiol]?
Answer: inhibition vs control without cannabinoid (UGT1A6; 10 µM, screening): 25%; inhibition vs control without cannabinoid (UGT1A6; 100 µM, screening in duplicate): 54%; IC50 (UGT1A6; IC50,u (binding-corrected IC50), probe substrate serotonin): 400 ± 100 nM; inhibition vs control without cannabinoid (UGT2B4; 10 µM, codeine, screening): 66%; IC50 (UGT2B4; IC50, probe substrate codeine): 5800 ± 1200 nM; IC50 (UGT2B4; IC50,u (binding-corrected IC50), probe substrate codeine): 220 ± 45 nM; IC50 (UGT1A9; [2]): 2400 ± 660 nM; IC50 (UGT1A9; [3]): 90 ± 25 nM; inhibition in screening (in words) (UGT1A3): no significant inhibition; inhibition vs control without cannabinoid (UGT2B17): 43%; IC50 [1, 2]: 3600 ± 800 nM; IC50 [1, 3]: 220 ± 49 nM
